Measurements as given in patent publication US9682995B2, “Amino-substituted isothiazoles” (BAYER PHARMA AKTIENGESELLSCHAFT, priority 2013, dated 2017).

Legend:
Assay in all cases: Kinase Profiling (KINOMEscan)
Type in all cases: binding
[1] = target: 456 kinases (of these 395 non-mutant kinases) (Homo sapiens, UniProt Q8NI60); settings: ADCK3; 10 μM
[2] = target: 456 kinases (of these 395 non-mutant kinases) (Homo sapiens, UniProt P45984); settings: JNK2; 10 μM
[3] = target: 456 kinases (of these 395 non-mutant kinases) (Homo sapiens, UniProt Q9UBF8); settings: PIK4CB; 10 μM
[4] = target: 456 kinases (of these 395 non-mutant kinases) (Homo sapiens, UniProt Q15375); settings: EPHA7; 10 μM
[5] = target: 456 kinases (of these 395 non-mutant kinases) (Homo sapiens, UniProt O43353); settings: RIPK2; 10 μM
[6] = target: 456 kinases (of these 395 non-mutant kinases) (Homo sapiens, UniProt P80192); settings: MLK1; 10 μM
[7] = target: 456 kinases (of these 395 non-mutant kinases) (Homo sapiens, UniProt P08581); settings: MET; 10 μM
[8] = target: 456 kinases (of these 395 non-mutant kinases) (Homo sapiens, UniProt Q13464); settings: ROCK1; 10 μM
[9] = target: 456 kinases (of these 395 non-mutant kinases) (Homo sapiens, UniProt Q9P1W9); settings: PIM2; 10 μM
[10] = target: 456 kinases (of these 395 non-mutant kinases) (Homo sapiens, UniProt Q5VT25); settings: MRCKA; 10 μM
[11] = target: 456 kinases (of these 395 non-mutant kinases) (Homo sapiens, UniProt P07949, M918T); settings: RET(M918T); 10 μM
[12] = target: 456 kinases (of these 395 non-mutant kinases) (Homo sapiens, UniProt P10721, L576P); settings: KIT(L576P); 10 μM
[13] = target: 456 kinases (of these 395 non-mutant kinases) (Homo sapiens, UniProt Q16620); settings: TRKB; 10 μM
[14] = target: 456 kinases (of these 395 non-mutant kinases) (Homo sapiens, UniProt P00533, L861Q); settings: EGFR(L861Q); 10 μM
[15] = target: 456 kinases (of these 395 non-mutant kinases) (Homo sapiens, UniProt Q9C098); settings: DCAMKL3; 10 μM
[16] = target: 456 kinases (of these 395 non-mutant kinases) (Homo sapiens, UniProt Q9UF33); settings: EPHA6; 10 μM
[17] = target: 456 kinases (of these 395 non-mutant kinases) (Homo sapiens, UniProt P54753); settings: EPHB3; 10 μM
[18] = target: 456 kinases (of these 395 non-mutant kinases) (Homo sapiens, UniProt Q15831); settings: LKB1; 10 μM
[19] = target: 456 kinases (of these 395 non-mutant kinases) (Homo sapiens, UniProt O00329); settings: PIK3CD; 10 μM
[20] = target: 456 kinases (of these 395 non-mutant kinases) (Homo sapiens, UniProt Q8TD08); settings: ERK8; 10 μM
[21] = target: 456 kinases (of these 395 non-mutant kinases) (Homo sapiens, UniProt P10721); settings: 10 μM
[22] = target: 456 kinases (of these 395 non-mutant kinases) (Homo sapiens, UniProt P49759); settings: CLK1; 10 μM
[23] = target: 456 kinases (of these 395 non-mutant kinases) (Homo sapiens, UniProt O43683); settings: BUB1; 10 μM
[24] = target: 456 kinases (of these 395 non-mutant kinases) (Homo sapiens, UniProt P54756); settings: EPHA5; 10 μM
[25] = target: 456 kinases (of these 395 non-mutant kinases) (Homo sapiens, UniProt P57078); settings: RIPK4; 10 μM
[26] = target: 456 kinases (of these 395 non-mutant kinases) (Mycobacterium tuberculosis, UniProt P9WI81)
[27] = target: 456 kinases (of these 395 non-mutant kinases) (Homo sapiens, UniProt P29322); settings: EPHA8; 10 μM
[28] = target: 456 kinases (of these 395 non-mutant kinases) (Homo sapiens, UniProt P00533, DEL746-750); settings: EGFR(E746-A750del); 10 μM
[29] = target: 456 kinases (of these 395 non-mutant kinases) (Homo sapiens, UniProt P53667); settings: LIMK1; 10 μM
[30] = target: 456 kinases (of these 395 non-mutant kinases) (Homo sapiens, UniProt Q9P289); settings: MST4; 10 μM
[31] = target: 456 kinases (of these 395 non-mutant kinases) (Homo sapiens, UniProt P42336, M1043I); settings: PIK3CA(M1043I); 10 μM
[32] = target: 456 kinases (of these 395 non-mutant kinases) (Homo sapiens, UniProt P00519, Y253F); settings: ABL1(Y253F)-phosphorylated; 10 μM

Chain of 456 kinases (of these 395 non-mutant kinases) (Homo sapiens, UniProt P10721) (P10721 26-976 limits assumed, change not shown): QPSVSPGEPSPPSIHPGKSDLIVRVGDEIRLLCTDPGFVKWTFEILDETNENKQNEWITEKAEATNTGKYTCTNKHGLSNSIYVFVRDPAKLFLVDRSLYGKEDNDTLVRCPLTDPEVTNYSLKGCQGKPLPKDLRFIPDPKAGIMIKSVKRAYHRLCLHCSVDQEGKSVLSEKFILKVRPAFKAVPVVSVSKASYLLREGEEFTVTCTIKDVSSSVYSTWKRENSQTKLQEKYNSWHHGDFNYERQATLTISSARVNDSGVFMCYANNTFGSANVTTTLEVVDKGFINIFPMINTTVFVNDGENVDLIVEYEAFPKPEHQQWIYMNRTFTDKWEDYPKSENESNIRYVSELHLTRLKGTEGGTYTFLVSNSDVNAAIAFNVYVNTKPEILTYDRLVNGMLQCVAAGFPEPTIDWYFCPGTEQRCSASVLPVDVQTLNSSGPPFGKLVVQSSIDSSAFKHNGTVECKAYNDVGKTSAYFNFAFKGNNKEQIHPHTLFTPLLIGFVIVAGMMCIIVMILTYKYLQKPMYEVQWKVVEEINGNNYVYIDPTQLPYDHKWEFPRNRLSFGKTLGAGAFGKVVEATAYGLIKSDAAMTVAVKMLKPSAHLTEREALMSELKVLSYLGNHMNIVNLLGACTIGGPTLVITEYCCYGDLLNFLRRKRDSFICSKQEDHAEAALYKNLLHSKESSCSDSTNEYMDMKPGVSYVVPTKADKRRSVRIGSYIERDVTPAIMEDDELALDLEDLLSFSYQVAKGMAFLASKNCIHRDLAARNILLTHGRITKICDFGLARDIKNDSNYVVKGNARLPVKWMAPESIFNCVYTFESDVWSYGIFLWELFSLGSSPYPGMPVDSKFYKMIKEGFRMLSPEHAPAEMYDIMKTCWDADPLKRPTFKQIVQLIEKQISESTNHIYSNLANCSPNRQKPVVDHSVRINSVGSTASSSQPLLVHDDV
Chain of 456 kinases (of these 395 non-mutant kinases) (Homo sapiens, UniProt Q9UF33) (Q9UF33 23-1036 limits assumed, change not shown): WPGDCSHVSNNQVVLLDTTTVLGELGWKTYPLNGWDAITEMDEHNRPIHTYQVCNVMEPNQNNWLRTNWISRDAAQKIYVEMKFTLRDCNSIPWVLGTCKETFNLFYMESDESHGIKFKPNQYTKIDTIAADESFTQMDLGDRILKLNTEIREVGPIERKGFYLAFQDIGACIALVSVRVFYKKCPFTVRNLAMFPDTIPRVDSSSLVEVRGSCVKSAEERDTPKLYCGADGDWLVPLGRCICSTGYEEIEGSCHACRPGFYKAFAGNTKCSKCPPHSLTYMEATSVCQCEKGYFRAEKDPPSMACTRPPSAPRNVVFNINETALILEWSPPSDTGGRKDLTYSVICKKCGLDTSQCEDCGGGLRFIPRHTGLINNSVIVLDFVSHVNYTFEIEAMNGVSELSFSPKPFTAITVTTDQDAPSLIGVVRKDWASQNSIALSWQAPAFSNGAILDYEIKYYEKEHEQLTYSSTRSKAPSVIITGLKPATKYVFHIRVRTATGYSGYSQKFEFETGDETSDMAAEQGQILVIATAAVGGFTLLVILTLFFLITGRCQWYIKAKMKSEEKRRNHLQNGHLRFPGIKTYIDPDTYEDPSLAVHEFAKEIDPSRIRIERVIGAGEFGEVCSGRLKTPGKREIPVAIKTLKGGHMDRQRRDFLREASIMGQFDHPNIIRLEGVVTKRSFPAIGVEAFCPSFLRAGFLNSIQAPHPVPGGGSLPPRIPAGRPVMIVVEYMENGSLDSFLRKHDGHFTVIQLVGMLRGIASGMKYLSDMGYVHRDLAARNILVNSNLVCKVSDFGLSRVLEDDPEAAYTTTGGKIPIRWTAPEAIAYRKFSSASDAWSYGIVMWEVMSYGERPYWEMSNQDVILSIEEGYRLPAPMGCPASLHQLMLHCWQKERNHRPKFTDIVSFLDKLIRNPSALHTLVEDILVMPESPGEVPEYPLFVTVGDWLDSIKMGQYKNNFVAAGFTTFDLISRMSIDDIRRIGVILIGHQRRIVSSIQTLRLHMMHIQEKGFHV
Chain of 456 kinases (of these 395 non-mutant kinases) (Homo sapiens, UniProt Q13464) (Q13464 2-1354 limits assumed, change not shown): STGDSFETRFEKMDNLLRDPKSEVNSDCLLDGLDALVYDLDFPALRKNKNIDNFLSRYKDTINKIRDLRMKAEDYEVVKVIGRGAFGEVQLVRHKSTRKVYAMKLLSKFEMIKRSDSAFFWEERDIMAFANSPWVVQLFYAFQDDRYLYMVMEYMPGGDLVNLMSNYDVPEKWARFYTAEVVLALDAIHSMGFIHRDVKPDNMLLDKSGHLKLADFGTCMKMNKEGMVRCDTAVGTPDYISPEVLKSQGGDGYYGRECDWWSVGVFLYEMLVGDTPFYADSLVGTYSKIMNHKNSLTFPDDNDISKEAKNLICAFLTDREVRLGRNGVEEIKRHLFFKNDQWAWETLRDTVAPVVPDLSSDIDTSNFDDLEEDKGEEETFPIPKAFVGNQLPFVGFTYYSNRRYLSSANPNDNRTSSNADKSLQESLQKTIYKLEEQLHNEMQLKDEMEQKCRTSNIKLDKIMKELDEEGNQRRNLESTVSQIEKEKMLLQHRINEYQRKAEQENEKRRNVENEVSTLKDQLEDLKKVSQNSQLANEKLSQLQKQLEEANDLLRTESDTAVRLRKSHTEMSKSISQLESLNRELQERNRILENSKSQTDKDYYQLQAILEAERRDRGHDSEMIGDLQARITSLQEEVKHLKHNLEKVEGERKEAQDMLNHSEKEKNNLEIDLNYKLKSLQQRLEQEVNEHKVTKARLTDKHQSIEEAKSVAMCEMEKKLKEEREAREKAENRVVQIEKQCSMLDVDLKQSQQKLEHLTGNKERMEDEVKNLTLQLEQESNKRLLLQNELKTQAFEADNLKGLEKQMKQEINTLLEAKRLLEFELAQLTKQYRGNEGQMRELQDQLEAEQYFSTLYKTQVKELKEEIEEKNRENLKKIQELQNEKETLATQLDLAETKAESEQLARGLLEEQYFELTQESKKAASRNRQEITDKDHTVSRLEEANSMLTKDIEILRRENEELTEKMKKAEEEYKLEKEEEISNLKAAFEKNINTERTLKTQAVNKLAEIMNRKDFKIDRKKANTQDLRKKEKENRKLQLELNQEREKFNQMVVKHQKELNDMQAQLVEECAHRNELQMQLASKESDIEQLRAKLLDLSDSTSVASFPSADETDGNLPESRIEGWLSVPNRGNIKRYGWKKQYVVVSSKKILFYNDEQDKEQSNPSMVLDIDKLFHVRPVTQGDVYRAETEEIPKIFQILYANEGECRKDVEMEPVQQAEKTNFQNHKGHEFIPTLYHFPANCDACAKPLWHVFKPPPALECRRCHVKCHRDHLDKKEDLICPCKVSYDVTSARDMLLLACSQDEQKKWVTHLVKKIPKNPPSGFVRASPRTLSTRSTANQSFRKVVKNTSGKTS
Chain of 456 kinases (of these 395 non-mutant kinases) (Homo sapiens, UniProt P54756) (P54756 25-1037 limits assumed, change not shown): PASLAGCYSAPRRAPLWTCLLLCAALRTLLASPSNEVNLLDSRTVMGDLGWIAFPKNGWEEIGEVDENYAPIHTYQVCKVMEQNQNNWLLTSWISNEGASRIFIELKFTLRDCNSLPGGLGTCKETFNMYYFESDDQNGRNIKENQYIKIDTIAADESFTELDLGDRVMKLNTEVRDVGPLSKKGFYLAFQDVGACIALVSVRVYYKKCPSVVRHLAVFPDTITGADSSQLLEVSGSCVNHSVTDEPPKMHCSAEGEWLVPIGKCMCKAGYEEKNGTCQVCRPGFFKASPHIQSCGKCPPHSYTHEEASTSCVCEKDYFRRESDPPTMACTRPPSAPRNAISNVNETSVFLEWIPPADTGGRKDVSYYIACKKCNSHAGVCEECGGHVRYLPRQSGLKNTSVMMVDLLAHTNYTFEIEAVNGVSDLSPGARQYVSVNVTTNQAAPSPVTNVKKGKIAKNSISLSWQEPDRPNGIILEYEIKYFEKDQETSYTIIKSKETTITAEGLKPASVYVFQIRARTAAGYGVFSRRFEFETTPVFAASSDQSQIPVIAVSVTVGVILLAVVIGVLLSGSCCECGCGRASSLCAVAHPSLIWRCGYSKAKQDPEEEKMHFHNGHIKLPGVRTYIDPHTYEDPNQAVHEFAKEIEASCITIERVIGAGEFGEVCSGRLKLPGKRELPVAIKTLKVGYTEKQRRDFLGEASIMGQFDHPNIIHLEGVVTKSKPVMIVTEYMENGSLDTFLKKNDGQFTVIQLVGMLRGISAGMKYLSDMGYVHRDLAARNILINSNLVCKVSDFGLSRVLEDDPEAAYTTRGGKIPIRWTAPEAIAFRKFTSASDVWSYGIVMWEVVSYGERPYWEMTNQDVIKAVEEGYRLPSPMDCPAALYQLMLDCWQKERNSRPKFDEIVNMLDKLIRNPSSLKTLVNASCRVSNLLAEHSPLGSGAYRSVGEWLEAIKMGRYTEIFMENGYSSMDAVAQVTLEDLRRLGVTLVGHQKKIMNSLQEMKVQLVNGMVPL
Chain of 456 kinases (of these 395 non-mutant kinases) (Homo sapiens, UniProt Q8NI60) (Q8NI60 163-647 limits assumed, change not shown): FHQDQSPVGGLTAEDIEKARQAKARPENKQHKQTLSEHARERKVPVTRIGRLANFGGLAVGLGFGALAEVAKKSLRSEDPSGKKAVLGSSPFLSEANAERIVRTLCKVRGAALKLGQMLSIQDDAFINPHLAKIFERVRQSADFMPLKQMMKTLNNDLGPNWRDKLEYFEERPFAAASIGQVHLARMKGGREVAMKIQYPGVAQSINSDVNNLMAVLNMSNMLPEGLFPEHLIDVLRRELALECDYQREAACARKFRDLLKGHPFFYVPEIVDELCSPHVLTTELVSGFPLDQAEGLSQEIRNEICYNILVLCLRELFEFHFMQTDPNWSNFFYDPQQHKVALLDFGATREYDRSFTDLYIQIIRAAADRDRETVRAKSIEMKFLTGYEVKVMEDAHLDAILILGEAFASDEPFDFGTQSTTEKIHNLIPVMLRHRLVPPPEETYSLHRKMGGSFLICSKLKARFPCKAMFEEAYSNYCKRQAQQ
Chain of 456 kinases (of these 395 non-mutant kinases) (Homo sapiens, UniProt P10721, L576P) (P10721 26-976 L576P limits assumed): as the sequence (P10721 26-976 limits assumed, change not shown) above, with L551P counted along it

CCc1ccccc1NC(=O)c1c(C)nsc1Nc1cnc2cc(F)ccc2n1 [Example 20, N-(2-Ethylphenyl)-5-[(6-fluoroquinoxalin-2-yl)amino]-3-methyl-1,2-thiazole-4-carboxamide]
% Ctrl @ 10 μM [1]: 64 % Ctrl
% Ctrl @ 10 μM [2]: 100 % Ctrl
% Ctrl @ 10 μM [3]: 78 % Ctrl
% Ctrl @ 10 μM [4]: 100 % Ctrl
% Ctrl @ 10 μM [5]: 66 % Ctrl
% Ctrl @ 10 μM [6]: 100 % Ctrl
% Ctrl @ 10 μM [7]: 100 % Ctrl
% Ctrl @ 10 μM [8]: 81 % Ctrl
% Ctrl @ 10 μM [9]: 100 % Ctrl
% Ctrl @ 10 μM [10]: 92 % Ctrl
% Ctrl @ 10 μM [11]: 78 % Ctrl
% Ctrl @ 10 μM [12]: 100 % Ctrl
% Ctrl @ 10 μM [13]: 90 % Ctrl
% Ctrl @ 10 μM [14]: 100 % Ctrl
% Ctrl @ 10 μM [15]: 100 % Ctrl
% Ctrl @ 10 μM [16]: 85 % Ctrl
% Ctrl @ 10 μM [17]: 82 % Ctrl
% Ctrl @ 10 μM [18]: 100 % Ctrl
% Ctrl @ 10 μM [19]: 100 % Ctrl
% Ctrl @ 10 μM [20]: 82 % Ctrl
% Ctrl @ 10 μM ([21]; KIT-autoinhibited): 100 % Ctrl
% Ctrl @ 10 μM ([21]; KIT): 98 % Ctrl
% Ctrl @ 10 μM [22]: 58 % Ctrl
% Ctrl @ 10 μM [23]: 100 % Ctrl
% Ctrl @ 10 μM [24]: 99 % Ctrl
% Ctrl @ 10 μM [25]: 100 % Ctrl
% Ctrl @ 10 μM [26]: 100 % Ctrl
% Ctrl @ 10 μM [27]: 96 % Ctrl
% Ctrl @ 10 μM [28]: 100 % Ctrl
% Ctrl @ 10 μM [29]: 90 % Ctrl
% Ctrl @ 10 μM [30]: 100 % Ctrl
% Ctrl @ 10 μM [31]: 76 % Ctrl
% Ctrl @ 10 μM [32]: 100 % Ctrl
